Results taken from ChEMBL document CHEMBL3352794, “Identification of potent inhibitors of the chicken soluble epoxide hydrolase” (Bioorg Med Chem Lett, 2015).
≈ marks a conversion by molar mass, not a printed value.

Assays:
[1] = Inhibition of recombinant purified chicken soluble epoxide hydrolase using fluorescent PHOME as substrate; parameters: species or system Gallus gallus
[2] = Stability in human liver microsomes assessed as compound remaining at 1 uM after 30 mins by mass spectrometry in presence of NADPH
[3] = Stability in chicken liver microsomes assessed as compound remaining at 1 uM after 30 mins by mass spectrometry
[4] = Stability in chicken liver microsomes assessed as compound remaining at 1 uM after 30 mins by mass spectrometry in presence of NADPH
[5] = Stability in human liver microsomes assessed as compound remaining at 1 uM after 30 mins by mass spectrometry
[6] = Solubility of the compound in 0.1 M sodium phosphate buffer at pH 7.4 containing 1% DMSO by turbidity method; conditions: 0.1 M sodium phosphate buffer with 1% DMSO
[7] = Inhibition of recombinant purified chicken soluble epoxide hydrolase by FRET-based competitive displacement assay in presence of ACPU; parameters: species or system Gallus gallus

| SMILES | IC50 [1] | further results |
| --- | --- | --- |
| CC(=O)N1CCN(CCCCOc2cccc(NC(=O)NC34CC5CC(CC(C5)C3)C4)c2)CC1 | 4 nM |  |
| NS(=O)(=O)c1ccc(-n2nc(CCCNC(=O)NC3CCCCCC3)cc2-c2ccccc2)cc1 | 3.3 nM |  |
| Cc1cc(C)c(CN2CCC(C(=O)NC3CCCCCC3)CC2)c(C)c1 | 13 nM |  |
| O=C(Nc1ccc(OCCOCCOCC(F)(F)F)cc1)NC12CC3CC(CC(C3)C1)C2 | 4.4 nM |  |
| CCCCCOC(=O)C1CCCC(NC(=O)NC23CC4CC(CC(C4)C2)C3)C1 (stereo not given) | 5.7 nM |  |
| O=C(O)CCCCCCCCCCCNC(=O)NC12CC3CC(CC(C3)C1)C2 | 13 nM | remaining at 0.5 h, 1 µM [2]: 69%; remaining at 0.5 h, 1 µM [3]: 106%; remaining at 0.5 h, 1 µM [4]: 70%; remaining at 0.5 h, 1 µM [5]: 98%; solubility kinetic [6]: 37.5 µM (≈ 14.7 µg/mL) |
| CNC(=O)c1cc(O[C@H]2CC[C@H](NC(=O)Nc3ccc(Cl)c(C(F)(F)F)c3)CC2)ccn1 | 11 nM |  |
| CNC(=O)c1ccc(O[C@H]2CC[C@H](NC(=O)Nc3ccc(Cl)c(C(F)(F)F)c3)CC2)cn1 | 5.1 nM |  |
| COc1ccc(O[C@H]2CC[C@@H](NC(=O)NC34CC5CC(CC(C5)C3)C4)CC2)cc1 |  | remaining at 0.5 h, 1 µM [2]: 57%; remaining at 0.5 h, 1 µM [3]: 69%; remaining at 0.5 h, 1 µM [4]: 2.1%; remaining at 0.5 h, 1 µM [5]: 98% |
| O=C(CCCCCCCCCCCNC(=O)NC12CC3CC(CC(C3)C1)C2)N[C@@H]1O[C@H](CO)[C@H](O)[C@@H](O)[C@H]1O | 3.5 nM |  |
| CCCCCOC(=O)C1CCC(NC(=O)NC23CC4CC(CC(C4)C2)C3)CC1 (stereo not given) | 5.2 nM |  |
| CC(C)=CCO[C@H]1CC[C@@H](NC(=O)NC23CC4CC(CC(C4)C2)C3)CC1 | 5.3 nM |  |
| O=C(NCCCc1ccccc1)N[C@H]1CC[C@@H](Oc2ccc(F)cc2)CC1 | 3.5 nM |  |
| O=C(NC1CCCCCCC1)N[C@H]1CC[C@@H](Oc2ccc(F)cc2)CC1 | 5.1 nM |  |
| O=C(Nc1ccc(C(F)(F)F)cc1)N[C@H]1CC[C@H](OCc2c(F)cccc2F)CC1 | 4.4 nM |  |
| CCOC(=O)C(C)OCCCCCCCCNC(=O)NC12CC3CC(CC(C3)C1)C2 (stereo not given) | 4.4 nM |  |
| CC(C)(C)OC(=O)N1CCC(NC(=O)NC23CC4CC(CC(C4)C2)C3)CC1 | 7.5 nM |  |
| N#Cc1ccc(O[C@H]2CC[C@H](NC(=O)Nc3ccc(Cl)c(C(F)(F)F)c3)CC2)cc1 | 3.6 nM |  |
| CCN(CC)C(=O)c1cc(O[C@H]2CC[C@H](NC(=O)Nc3ccc(Cl)c(C(F)(F)F)c3)CC2)ccn1 | 9.6 nM |  |
| NS(=O)(=O)c1ccc(-n2nc(CCCNC(=O)Nc3ccc(C(F)(F)F)cc3)cc2-c2ccc(F)cc2)cc1 | 5.7 nM |  |
| O=C(NCCCCOc1ccc(F)cc1)NC12CC3CC(CC(C3)C1)C2 | 9.6 nM |  |

More lines, main results first:

| IC50 [1] | SMILES | further results |
| --- | --- | --- |
| 2.3 nM | CC(=O)N1CCN(CCCCOc2ccc(NC(=O)NC34CC5CC(CC(C5)C3)C4)cc2)CC1 |  |
| 1.7 nM | C=CCO[C@H]1CC[C@@H](NC(=O)NC23CC4CC(CC(C4)C2)C3)CC1 |  |
| 2.7 nM | O=C(NC1CCCCCC1)N[C@H]1CC[C@@H](Oc2ccc(F)cc2)CC1 |  |
| 3 nM | Cc1ccc(S(=O)(=O)N2CCC(C(=O)NCC3CCCCC3)CC2)c(C)c1 |  |
| 2.4 nM | CNC(=O)c1ccc(O[C@H]2CC[C@H](NC(=O)NC34CC5CC(CC(C5)C3)C4)CC2)cc1 | remaining at 0.5 h, 1 µM [2]: 94%; remaining at 0.5 h, 1 µM [3]: 96%; remaining at 0.5 h, 1 µM [4]: 96%; Ki [7]: < 0.02 nM; remaining at 0.5 h, 1 µM [5]: 101%; solubility kinetic [6]: 50 µM (≈ 21.3 µg/mL) |
| 2 nM | O=C(Nc1cccc(Cl)c1)N[C@H]1CC[C@H](OCc2c(F)cccc2F)CC1 |  |
| 2.4 nM | O=C(Nc1cccc(Br)c1)N[C@H]1CC[C@H](OCc2c(F)cccc2F)CC1 |  |
| 1.9 nM | O=C(NCCCc1ccccc1)N[C@H]1CC[C@H](OCc2c(F)cccc2F)CC1 |  |
| 1.4 nM | COC(=O)c1ccc(C(=O)N2CCC(NC(=O)Nc3ccc(OC(F)(F)F)cc3)CC2)cc1 | remaining at 0.5 h, 1 µM [2]: 2.7%; remaining at 0.5 h, 1 µM [3]: 105%; remaining at 0.5 h, 1 µM [4]: 94%; remaining at 0.5 h, 1 µM [5]: 1.2%; solubility kinetic [6]: 75 µM (≈ 34.9 µg/mL) |
| 3.1 nM | O=C(NC12CC3CC(CC(C3)C1)C2)N[C@H]1CC[C@H](OCc2cc(F)cc(F)c2)CC1 |  |
| 2.1 nM | NC(=O)CCCCCCCCCCCNC(=O)NC12CC3CC(CC(C3)C1)C2 |  |
| 1.2 nM | O=C(NC12CC3CC(CC(C3)C1)C2)N[C@H]1CC[C@H](Oc2ccc(CO)cc2)CC1 | remaining at 0.5 h, 1 µM [2]: 53%; remaining at 0.5 h, 1 µM [3]: 73%; remaining at 0.5 h, 1 µM [4]: 24%; Ki [7]: < 0.02 nM; remaining at 0.5 h, 1 µM [5]: 91%; solubility kinetic [6]: > 100 µM |
| 2.1 nM | CNC(=O)c1ccc(O[C@H]2CC[C@@H](NC(=O)Nc3ccc(OC(F)(F)F)cc3)CC2)cc1 | remaining at 0.5 h, 1 µM [2]: 5.4%; remaining at 0.5 h, 1 µM [3]: 119%; remaining at 0.5 h, 1 µM [4]: 89%; remaining at 0.5 h, 1 µM [5]: 101%; solubility kinetic [6]: 10 µM (≈ 4.51 µg/mL) |
| 1.2 nM | O=C(NC12CC3CC(CC(C3)C1)C2)N[C@H]1CC[C@@H](Oc2ccc(F)cc2)CC1 |  |
